In patent US20140113899A1 (priority 2011, published 2014):
Like-named read-outs stand apart in the source and are kept apart here.

Tests used:
Fusarium graminearum [1] = type: in vivo
Glomerella cingulata = experiment: Test Example 4: in vitro antimicrobial activity test with bixafen and Compound I-1; type: cell-based
Puccinia recondida = experiment: Test Example 7: controlling effect of isopyrazam and Compound I-1 on wheat brown rust; type: in vivo
Protocol: Isopyrazam and Compound I-1 were mixed at a given ratio and a test for a cooperative effect against wheat brown rust was carried out. First, a chemical suspension containing isopyrazam and Compound I-1 were prepared and sprayed on a pot of a wheat plant at two leaves stage so that thus sprayed isopyrazam and Compound I-1 became a predetermined dosage. Then, after the pot was left for approximately one hour at a room temperature so that the plant body dries, Puccinia recondida was inoculated by spraying an urediniospore suspended solution (1×10^5/ml) of Puccinia recondida. Then, the pot was kept in a wet chamber at 20° C. for 15 hours, and after 14 days, onset of disease was examined by a disease-onset area index. Here, the test was conducted by use of one plot pot.

Botrytis cinere = experiment: Test Example 11: in vitro antimicrobial activity test with azoxystrobin and Compound I-1; type: cell-based
Text: Then, a mycelial growth inhibition ratio against Botrytis cinere was obtained.

Gaeumannomyces graminis = experiment: Test Example 13: in vitro antimicrobial activity test with prochloraz and Compound I-1; type: cell-based
Text: Then, a mycelial growth inhibition ratio against Gaeumannomyces graminis was obtained.

Alternaria alternata = experiment: Test Example 15: in vitro antimicrobial activity test with fenpropimorph and Compound I-1; type: cell-based
Text: Then, a mycelial growth inhibition ratio against Alternaria alternata was obtained.

[2] = test system: Pseudocercoporella herpotrichoides; experiment: Test Example 16: in vitro antimicrobial activity test with thiophanate-methyl and Compound I-1; type: cell-based
Rhizoctonia solani = experiment: Test Example 18: in vitro antimicrobial activity test with chlorothalonil and Compound I-1; type: cell-based; details: Compound I-1 1.25 ppm alone
Pythium aphanidermatum = experiment: Test Example 19: in vitro antimicrobial activity test with metalaxyl and Compound I-1; type: cell-based; details: Compound I-1 0.005 ppm alone
Fusarium graminearum [3] = type: in vivo; details: wettable powder containing only the compound, 500 mg/L, sprayed at 1,000 L/ha; fourth to seventh days after inoculation
Microdocum nivale [4] = experiment: Test Example 9: in vitro antimicrobial activity test with benodanil and Compound I-1; details: Compound I-1 0.078 ppm alone
Protocol: (§1) In the test, a flora disk of 4 mm in diameter was cut from an area around a colony of Microdocum nivale pre-cultured in advance in a pre-culture PDA medium, and Microdocum nivale was inoculated on the PDA medium where chemical agents were mixed. After culturing at 25° C. for 3 days, a diameter of a grown colony was measured. Then, a mycelial growth inhibition ratio was calculated by comparing the diameter of this grown colony with a diameter of a colony on a medium without the chemical agents. As in Test Example 1, a cooperative effect was judged by use of Colby's formula.

Microdocum nivale [5] = experiment: Test Example 10: in vitro antimicrobial activity test with penthiopyrad and Compound I-1
Protocol: as §1
Then, a mycelial growth inhibition ratio against Microdocum nivale was obtained.

Microdocum nivale [6] = experiment: Test Example 14: in vitro antimicrobial activity test with prothioconazole and Compound I-1
Fusarium graminearum [7] = type: in vivo; details: Fluopyram 20 g/ha alone
Fusarium graminearum [8] = type: in vivo; details: Furametpyr 20 g/ha alone

Question: Which “Actual Protective Value” (Fusarium graminearum [1]; Compound (I) 4 g/ha alone) does the source give for `C[C@@]1(CCl)CC[C@H](Cc2ccc(Cl)cc2)[C@@]1(O)Cn1cncn1` (racemic) [Compound I-1, (1RS,2SR,5SR)-5-(4-chlorobenzyl)-2-chloromethyl-2-methyl-1-(1H-1,2,4-triazole-1-ylmethyl)cyclopentanol] here?
Answer: 9.4

Question: And the “Actual Protective Value” (Fusarium graminearum [1]; Compound (I) 8 g/ha alone)?
Answer: 12.9

Question: And the “Mycelial Growth Inhibition Ratio % Measured Value” (Glomerella cingulata; Compound (I) 0.005 ppm alone)?
Answer: 13%

Question: And the “Mycelial Growth Inhibition Ratio % Measured Value” (Glomerella cingulata; Compound (I) 0.02 ppm alone)?
Answer: 23%

Question: What about the “Actual Protective Value” (Puccinia recondida; Compound I-1 0.1875 g/ha alone) of the same compound?
Answer: 13

Question: And the “Actual Protective Value” (Puccinia recondida; Compound I-1 0.375 g/ha alone)?
Answer: 37

Question: And the “Actual Protective Value” (Puccinia recondida; Compound I-1 0.75 g/ha alone)?
Answer: 67

Question: And the “Actual Protective Value” (Puccinia recondida; Compound I-1 1.5 g/ha alone)?
Answer: 80

Question: And the “Actual Protective Value” (Puccinia recondida; Compound I-1 3 g/ha alone)?
Answer: 93

Question: What about the “Mycelial Growth Inhibition Ratio % Measured Value” (Botrytis cinere; Compound I-1 0.02 ppm alone) of the same compound?
Answer: 25%

Question: What about the “Mycelial Growth Inhibition Ratio % Measured Value” (Botrytis cinere; Compound I-1 0.078 ppm alone) of the same compound?
Answer: 47%

Question: And the “Mycelial Growth Inhibition Ratio % Measured Value” (Gaeumannomyces graminis; Compound I-1 0.02 ppm alone)?
Answer: 0%

Question: What about the “Mycelial Growth Inhibition Ratio % Measured Value” (Gaeumannomyces graminis; Compound I-1 0.078 ppm alone) of the same compound?
Answer: 17%

Question: And the “Mycelial Growth Inhibition Ratio % Measured Value” (Gaeumannomyces graminis; Compound I-1 0.313 ppm alone)?
Answer: 74%

Question: And the “Mycelial Growth Inhibition Ratio % Measured Value” (Alternaria alternata; Compound I-1 0.02 ppm alone)?
Answer: 3%

Question: What about the “Mycelial Growth Inhibition Ratio % Measured Value” (Alternaria alternata; Compound I-1 0.078 ppm alone) of the same compound?
Answer: 24%

Question: What about the “Mycelial Growth Inhibition Ratio % Measured Value” (Alternaria alternata; Compound I-1 0.313 ppm alone) of the same compound?
Answer: 50%

Question: What about the “Mycelial Growth Inhibition Ratio % Measured Value” ([2]; Compound I-1 0.078 ppm alone) of the same compound?
Answer: 3%

Question: And the “Mycelial Growth Inhibition Ratio % Measured Value” ([2]; Compound I-1 0.313 ppm alone)?
Answer: 42%

Question: And the “Mycelial Growth Inhibition Ratio % Measured Value” (Rhizoctonia solani)?
Answer: 68%

Question: And the “Mycelial Growth Inhibition Ratio % Measured Value” (Pythium aphanidermatum)?
Answer: 9%

Question: What about the protective value (Fusarium graminearum [3]) of the same compound?
Answer: ≥ 90%

Question: And the “Mycelial Growth Inhibition Ratio % Measured Value” (Microdocum nivale [4])?
Answer: 8%

Question: What about the “Mycelial Growth Inhibition Ratio % Measured Value” (Microdocum nivale [5]; Compound I-1 0.005 ppm alone) of the same compound?
Answer: 5%

Question: What about the “Mycelial Growth Inhibition Ratio % Measured Value” (Microdocum nivale [5]; Compound I-1 0.02 ppm alone) of the same compound?
Answer: 10%

Question: What about the “Mycelial Growth Inhibition Ratio % Measured Value” (Microdocum nivale [5]; Compound I-1 0.078 ppm alone) of the same compound?
Answer: 12%

Question: And the “Mycelial Growth Inhibition Ratio % Measured Value” (Microdocum nivale [6]; Compound I-1 0.078 ppm alone)?
Answer: 8%

Question: And the “Mycelial Growth Inhibition Ratio % Measured Value” (Microdocum nivale [6]; Compound I-1 0.313 ppm alone)?
Answer: 34%

Question: How did the “Actual Protective Value” (Fusarium graminearum [7]) turn out when `O=C(NCCc1ncc(C(F)(F)F)cc1Cl)c1ccccc1C(F)(F)F` [Fluopyram] was run?
Answer: 0

Question: Which “Actual Protective Value” (Fusarium graminearum [8]) does the source give for `Cc1nn(C)c(Cl)c1C(=O)Nc1cccc2c1C(C)OC2(C)C` (stereo not drawn) [Furametpyr] here?
Answer: 0
